Assays:
[1] = biological target: T1, Factor Xa (Homo sapiens, UniProt P00742); experiment: Dose response assay for protease inhibitors: Factor Xa; assay type: biochemical; settings: ratio versus Factor XIa
T1 construct: Factor Xa; 0.2 μM in 50% glycerol (9.2 μg/mL)
Experimental: (§1) • Assay buffer: 20 mM Hepes, pH 7.4; 150 mM NaCl; 0.02% Tween 20 • Compounds: 10 mM stocks in DMSO • Substrate: 20 mM Glp-Pro-Arg-AMC, 25 mg/2.3 mL H2O (store at +4° C.) [Factor XIa, thrombin, and trypsin] • 20 mM Pro-Phe-Arg-AMC (Bachem I-1295), 25 mg/2.2 mL H2O or Boc-Leu-Gly-Arg-AMC (Bachem I-1105), 25 mg/2.07 mL H2O (store at +4° C.) [Factor Xa] • Enzyme: Factor XIa; 0.25 M in 50% glycerol (20 μg/mL) • Trypsin; 0.2 μM in 50% glycerol (4.8 μg/mL) • Thrombin; 0.2 μM in 50% glycerol (7.34 μg/mL) • Factor Xa; 0.2 μM in 50% glycerol (9.2 μg/mL)
(§2) • 1. Dilute the substrate to 100 μM in assay buffer (30 μL/6 mL). The enzyme is diluted to 0.5 nM just prior to use (12 L/6 mL for Factor XIa; 15 μL/6 mL for all of the rest.) • 2. Pipette 50 μL of substrate into each well of the 96 well (12×8) microtiter plate. (Column 1 is used as the 100% activity control and receives no compound, and Column 12 is the blank and receives no enzyme.) Add an additional 46 μL to column 2. • 3. Pipette 4 μL of each compound into the appropriate well in column 2 of the plate (unknowns assayed in triplicate, standard assayed in duplicate). The final compound concentration will be 1/50th of the stock. • 4. Serially two-fold dilute the compound by mixing the sample in column 2, removing 50 μL to the next well (column 3), mix and remove to column 4, etc. until column 11. After mixing column 11, remove 50 μL and discard. • 5. Pipette 50 μL of buffer into column 12. Initiate the reaction by adding 50 μL of enzyme solution to each well of columns 1-11 as rapidly as possible. • 6. Read the plate in a spectrophotometer (SpectraMax) at 30° C., wherein each well is measured every 60 s for 30 min. For Factor Xa assays, each well is measured every 1 min for a total of 60 min. • 7. For Factor XIa assays, the compounds are assayed, in duplicate, at 3 different starting concentrations, 20, 2, and 0.2 μM; 1:10, 1:100, and 1:1000 dilution of 10 mM stock or at 2, 0.2, and 0.02 μM; 1:100, 1:1000, and 1:10,000 dilution of 10 mM stock. Data for each concentration are combined for graphing and data fitting. • 8. Data can be used both for estimation of IC50 and for estimation of Kon.

[2] = biological target: T2, Thrombin (Homo sapiens, UniProt P00734); experiment: Dose response assay for protease inhibitors: thrombin; assay type: biochemical; settings: ratio versus Factor XIa
T2 construct: Thrombin; 0.2 μM in 50% glycerol (7.34 μg/mL)
Experimental: as §1, §2

[3] = biological target: T3, Trypsin (Bos taurus, UniProt P00760); experiment: Dose response assay for protease inhibitors: trypsin; assay type: biochemical; settings: ratio versus Factor XIa
T3 construct: gene PRSS1
T3 sequence (P00760 24-246): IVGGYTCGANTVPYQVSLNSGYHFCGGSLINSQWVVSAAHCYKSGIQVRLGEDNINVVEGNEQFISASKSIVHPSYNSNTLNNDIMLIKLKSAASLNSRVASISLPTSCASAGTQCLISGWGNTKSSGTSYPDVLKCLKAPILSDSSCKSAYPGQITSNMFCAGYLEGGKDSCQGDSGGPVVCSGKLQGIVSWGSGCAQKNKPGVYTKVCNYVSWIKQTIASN
Experimental: as §1, §2

[4] = Caco-2 cell permeability assay (A-B and B-A); assay type: in vitro ADME; settings: human; for Papp A→B at 60 min, 10 μM: A-B direction; for Papp B→A at 40 min, 10 μM: B-A direction
Experimental: The following procedure was used to determine the ability of a test compound to cross Caco-2 cells (human intestinal epithelial cells derived from a colorectal adenocarcinoma). The cells were seeded at 1×10^5 cells/cm^2 in 96-well Multiscreen™ plates (Millipore). Permeability assays were performed with the cells at days 21-25 post-seeding. Cells are typically used for 15 consecutive passages in culture.
This assay can be performed in either the apical to basolateral (A−B) or basolateral to apical (B−A) direction. The test compound was prepared at 10 μM in HBSS-MES (pH 6.5) or HBSS-HEPES (pH 7.4) with a final DMSO concentration of 1%. The working solution was then centrifuged and the supernatant added to the donor side. The assay plate was incubated at 37° C. with gentle shaking for 60 min or 40 min for the A−B or B−A assay, respectively. Samples were aliquoted from the donor side at time zero and the end point, and from the receiver side at the end point.
Reference compounds, propranolol (highly permeable), labetalol (moderately permeable), ranitidine (poorly permeable), and colchicine (P-glycoprotein substrate) were included in each assay.
Samples are analyzed by HPLC-MS/MS using selected reaction monitoring. The HPLC system consists of a binary LC pump with autosampler, a C-18 column, and a gradient.
The apparent permeability coefficient (Papp) of the test compound (Equation 2) and its recovery (Equation 3) are calculated as follows: […]
wherein A is the surface area of the cell monolayer (0.11 cm^2), C is concentration of the test compound expressed as peak area, D denotes donor, and R is receiver. “0”, “mid,” and “end” denote time at zero, mid-point, and end of the incubation, respectively. At is the incubation time. V is the volume of the donor or receiver.
This is most likely due to non-specific binding or degradation.

[5] = biological target: human Factor XIa (Homo sapiens, UniProt P03951); experiment: Factor XIa enzyme inhibition assay (dose response, fluorogenic AMC substrate); assay type: biochemical; parameters: Enzyme: Factor XIa; settings: purified enzyme; substrate 50 μM, enzyme 0.25 nM; read-out: hFXIa IC50
Experimental: as §1, §2
Potential inhibitors of Factor XIa were evaluated using the following assay.
PyroGlu-Pro-Arg-7-methylaminocourin (AMC), available from CPC Scientific, Inc., is based on the substrate pyro-Glu-Pro-Arg-pNA (S-2366), available from Diapharma Group, Inc. (Columbus, Ohio), wherein the p-nitroanaline group is replaced with 7-methylaminocoumarin (AMC).
The final concentration of the substrate in the assay was 50 μM, and the final concentration of the enzyme was 0.25 nM. Inhibitors were tested by serial dilution over an appropriate range to yield a dose response curve for determination of the inhibitors' IC50 value. The assay mixture was read every minute for 30 minutes in order to generate progress curves. The plates were read in a Spectramax m5 Multimode Plate Reader (Molecular Devices LLC, Sunnyvale, Calif.). Dose response curves were fit to Equation 1 below in which A is the maximum inhibition, B is the minimum inhibition, C is the IC50, and D is the Hill coefficient.
Y=[(A−B)/(1+(X/C)^D)]+B (Equation 1)

Chain of human Factor XIa (P03951 388-625 limits assumed): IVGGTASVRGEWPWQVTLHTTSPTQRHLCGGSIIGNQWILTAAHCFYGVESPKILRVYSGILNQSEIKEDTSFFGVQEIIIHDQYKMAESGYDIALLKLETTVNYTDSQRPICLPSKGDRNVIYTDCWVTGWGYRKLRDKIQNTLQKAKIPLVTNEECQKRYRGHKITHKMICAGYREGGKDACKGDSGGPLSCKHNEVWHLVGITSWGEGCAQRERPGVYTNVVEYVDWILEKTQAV
Chain of human Factor XIa (P03951 19-387 partner limits assumed): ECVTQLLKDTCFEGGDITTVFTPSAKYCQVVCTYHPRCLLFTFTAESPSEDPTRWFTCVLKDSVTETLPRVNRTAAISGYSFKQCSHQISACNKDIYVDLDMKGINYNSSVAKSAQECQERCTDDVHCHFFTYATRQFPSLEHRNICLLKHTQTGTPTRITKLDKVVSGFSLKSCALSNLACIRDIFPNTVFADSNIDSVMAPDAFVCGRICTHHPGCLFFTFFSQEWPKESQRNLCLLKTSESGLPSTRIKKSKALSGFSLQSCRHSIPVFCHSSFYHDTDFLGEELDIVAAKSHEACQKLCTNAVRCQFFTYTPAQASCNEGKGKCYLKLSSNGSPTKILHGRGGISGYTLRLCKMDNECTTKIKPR
T1 sequence (P00742 235-488 limits assumed): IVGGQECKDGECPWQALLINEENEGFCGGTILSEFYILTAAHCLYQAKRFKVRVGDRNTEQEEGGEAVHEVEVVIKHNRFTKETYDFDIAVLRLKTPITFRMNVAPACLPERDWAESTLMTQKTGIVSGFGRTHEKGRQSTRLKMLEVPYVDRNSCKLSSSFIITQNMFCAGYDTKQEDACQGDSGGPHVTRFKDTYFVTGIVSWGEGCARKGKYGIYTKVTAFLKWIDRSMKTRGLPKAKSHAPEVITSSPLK
T1 sequence (P00742 41-179 partner limits assumed): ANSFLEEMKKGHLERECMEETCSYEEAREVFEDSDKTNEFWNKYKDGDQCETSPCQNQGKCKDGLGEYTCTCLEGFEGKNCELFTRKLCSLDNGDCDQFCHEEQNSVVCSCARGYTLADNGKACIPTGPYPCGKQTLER

SMILES: CC[C@H](c1cccc(Cl)c1)N(C)C(=O)N1C(=O)[C@H](Cc2ccnc(N)c2)[C@H]1C(=O)N(C)c1ccncc1 [Compound 113]
- FXa/FXIa (selectivity ratio) [1]: I (“I” indicates >500)
- Ratio: Thrombin/FXIa [2]: H (“H” indicates 101-1000)
- Ratio: Trypsin/FXIa [3]: G (“G” indicates 1-100)
- Papp A→B at 60 min, 10 μM [4]: ≤ 10 ×10⁻⁶ cm/s
- Papp B→A at 40 min, 10 μM [4]: 11 to 30 ×10⁻⁶ cm/s
- IC50 [5]: < 10 nM

SMILES: CC[C@@H](NC(=O)N1C(=O)[C@H](Cc2ccnc(N)c2)[C@H]1C(=O)N(C)c1ccccc1)c1cccc(Cl)c1 [Compound 115]
- FXa/FXIa (selectivity ratio) [1]: H (“H” indicates 101-1000)
- Ratio: Thrombin/FXIa [2]: H (“H” indicates 101-1000)
- Ratio: Trypsin/FXIa [3]: G (“G” indicates 1-100)
- Papp A→B at 60 min, 10 μM [4]: 11 to 30 ×10⁻⁶ cm/s
- Papp B→A at 40 min, 10 μM [4]: ≤ 10 ×10⁻⁶ cm/s
- IC50 [5]: < 10 nM

SMILES: CC[C@@H](NC(=O)N1C(=O)[C@H](Cc2ccnc(N)c2)[C@H]1C(=O)N(CC)c1cccc(Cl)c1)C1CCCCC1 [Compound 32]
- FXa/FXIa (selectivity ratio) [1]: H (“H” indicates 101-1000)
- Ratio: Thrombin/FXIa [2]: G (“G” indicates 1-100)
- Ratio: Trypsin/FXIa [3]: G (“G” indicates 1-100)
- Papp A→B at 60 min, 10 μM [4]: ≤ 10 ×10⁻⁶ cm/s
- Papp B→A at 40 min, 10 μM [4]: ≤ 10 ×10⁻⁶ cm/s
- IC50 [5]: < 10 nM

SMILES: CC[C@@H](NC(=O)N1C(=O)[C@H](Cc2ccnc(N)c2)[C@H]1C(=O)N(C)c1ncccn1)C1CCCCC1 [Compound 37]
- FXa/FXIa (selectivity ratio) [1]: I (“I” indicates >500)
- Ratio: Thrombin/FXIa [2]: I (“I” indicates >500)
- Ratio: Trypsin/FXIa [3]: G (“G” indicates 1-100)
- Papp A→B at 60 min, 10 μM [4]: 11 to 30 ×10⁻⁶ cm/s
- Papp B→A at 40 min, 10 μM [4]: 11 to 30 ×10⁻⁶ cm/s
- IC50 [5]: < 10 nM

SMILES: CC[C@@H](NC(=O)N1C(=O)[C@H](Cc2ccnc(N)c2)[C@H]1C(=O)N(C)c1ccccc1)c1ccccc1 [Compound 40]
- FXa/FXIa (selectivity ratio) [1]: H (“H” indicates 101-1000)
- Ratio: Thrombin/FXIa [2]: H (“H” indicates 101-1000)
- Ratio: Trypsin/FXIa [3]: G (“G” indicates 1-100)
- IC50 [5]: < 10 nM

SMILES: CC[C@@H](NC(=O)N1C(=O)[C@H](Cc2ccnc(N)c2)[C@H]1C(=O)N(C)c1cccc(Cl)c1)c1cccc(Cl)c1 [Compound 118]
- FXa/FXIa (selectivity ratio) [1]: H (“H” indicates 101-1000)
- Ratio: Thrombin/FXIa [2]: G (“G” indicates 1-100)
- Ratio: Trypsin/FXIa [3]: G (“G” indicates 1-100)
- IC50 [5]: < 10 nM

SMILES: CN(C(=O)[C@@H]1[C@@H](Cc2ccncc2)C(=O)N1C(=O)N[C@@H](C1CCCCC1)C1CC1)c1ccncc1 [Compound 64]
- FXa/FXIa (selectivity ratio) [1]: H (“H” indicates 101-1000)
- Ratio: Thrombin/FXIa [2]: H (“H” indicates 101-1000)
- Ratio: Trypsin/FXIa [3]: H (“H” indicates 101-1000)
- IC50 [5]: 10 to 100 nM

SMILES: CC[C@@H](NC(=O)N1C(=O)[C@H](Cc2ccnc(N)c2)[C@H]1C(=O)N(C)c1ccncc1)c1ccc(C)nc1 [Compound 104]
- FXa/FXIa (selectivity ratio) [1]: I (“I” indicates >500)
- Ratio: Thrombin/FXIa [2]: H (“H” indicates 101-1000)
- Ratio: Trypsin/FXIa [3]: H (“H” indicates 101-1000)
- IC50 [5]: < 10 nM

SMILES: CC[C@@H](NC(=O)N1C(=O)[C@H](Cc2ccnc(N)c2)[C@H]1C(=O)N(C)c1cccc(C)c1)c1cccc(Cl)c1 [Compound 117]
- FXa/FXIa (selectivity ratio) [1]: H (“H” indicates 101-1000)
- Ratio: Thrombin/FXIa [2]: G (“G” indicates 1-100)
- Ratio: Trypsin/FXIa [3]: G (“G” indicates 1-100)
- IC50 [5]: < 10 nM

SMILES: CC[C@@H](NC(=O)N1C(=O)[C@H](Cc2ccnc(N)c2)[C@H]1C(=O)N(C)c1ccnc(C)c1)c1cccc(Cl)c1 [Compound 124]
- FXa/FXIa (selectivity ratio) [1]: H (“H” indicates 101-1000)
- Ratio: Thrombin/FXIa [2]: G (“G” indicates 1-100)
- Ratio: Trypsin/FXIa [3]: G (“G” indicates 1-100)
- IC50 [5]: < 10 nM

SMILES: CC[C@@H](NC(=O)N1C(=O)[C@H](Cc2cc(C)nc(N)c2)[C@H]1C(=O)N(C)c1ncccn1)c1cccc(Cl)c1 [Compound 135]
- FXa/FXIa (selectivity ratio) [1]: I (“I” indicates >500)
- Ratio: Thrombin/FXIa [2]: H (“H” indicates 101-1000)
- Ratio: Trypsin/FXIa [3]: G (“G” indicates 1-100)
- IC50 [5]: < 10 nM

SMILES: CC[C@@H](NC(=O)N1C(=O)[C@H](Cc2ccnc(N)c2)[C@H]1C(=O)N(C)c1ccncc1)c1cc(Cl)ccc1Cl [Compound 112]
- FXa/FXIa (selectivity ratio) [1]: H (“H” indicates 101-1000)
- Ratio: Thrombin/FXIa [2]: H (“H” indicates 101-1000)
- Ratio: Trypsin/FXIa [3]: G (“G” indicates 1-100)
- IC50 [5]: < 10 nM

SMILES: CC[C@@H](NC(=O)N1C(=O)[C@H](Cc2ccnc(N)c2)[C@H]1C(=O)N(C)c1cccc(F)c1)c1cccc(Cl)c1 [Compound 116]
- FXa/FXIa (selectivity ratio) [1]: H (“H” indicates 101-1000)
- Ratio: Thrombin/FXIa [2]: H (“H” indicates 101-1000)
- Ratio: Trypsin/FXIa [3]: G (“G” indicates 1-100)
- IC50 [5]: < 10 nM

SMILES: CC[C@@H](NC(=O)N1C(=O)[C@H](Cc2ccnc(N)c2)[C@H]1C(=O)N(CC)c1ccccc1)C1CCCCC1 [Compound 31]
- FXa/FXIa (selectivity ratio) [1]: I (“I” indicates >500)
- Ratio: Thrombin/FXIa [2]: H (“H” indicates 101-1000)
- Ratio: Trypsin/FXIa [3]: G (“G” indicates 1-100)
- IC50 [5]: < 10 nM

SMILES: CC[C@@H](NC(=O)N1C(=O)[C@H](Cc2ccnc(N)c2)[C@H]1C(=O)N(C)c1cccc(F)c1)C1CCCCC1 [Compound 29]
- FXa/FXIa (selectivity ratio) [1]: I (“I” indicates >500)
- Ratio: Thrombin/FXIa [2]: H (“H” indicates 101-1000)
- Ratio: Trypsin/FXIa [3]: G (“G” indicates 1-100)
- IC50 [5]: < 10 nM

SMILES: CC[C@@H](NC(=O)N1C(=O)[C@H](Cc2ccnc(N)c2)[C@H]1C(=O)N(C)c1ccncc1)c1cccc(Br)c1 [Compound 98]
- FXa/FXIa (selectivity ratio) [1]: H (“H” indicates 101-1000)
- Ratio: Thrombin/FXIa [2]: H (“H” indicates 101-1000)
- Ratio: Trypsin/FXIa [3]: G (“G” indicates 1-100)
- IC50 [5]: < 10 nM

Source: patent US20190315711A1 (eXIthera Pharmaceuticals, Inc., priority 2016, published 2019)
